Measurements from the OligoGym collection.
HELM strings list units from the 5' end as sugar, base in round brackets, then linkage (d deoxyribose, r ribose, m 2'-O-methyl, p phosphodiester). Strings are as the collection lists them; they lack the last nucleoside at the 3' end of the tested compound. [moe] = 2'-O-(2-methoxyethyl) (MOE); [sp] = phosphorothioate linkage; [m5C] = 5-methylcytosine

Target: GFAP
Assay: mouse, dose not given
Settings: ASO

| Substance | 3 h FOB score [score 0-7] |
| --- | --- |
| RNA1{[moe](T)[sp].[moe](G)p.[moe](G)p.[moe]([m5C])p.[moe](A)[sp].d(A)[sp].d([m5C])[sp].d(A)[sp].d(G)[sp].d(T)[sp].d(T)[sp].d(T)[sp].d([m5C])[sp].d([m5C])[sp].d(A)[sp].[moe](T)p.[moe](A)p.[moe](A)[sp].[moe]([m5C])}$$$$ (last 3' nucleoside missing) | 1 |
| RNA1{[moe](G)[sp].[moe](T)p.[moe](G)p.[moe](T)p.d(A)[sp].d(T)[sp].d(T)[sp].d(A)[sp].d(G)[sp].d(G)[sp].d(A)[sp].d(T)[sp].d([m5C])[sp].d([m5C])[sp].[moe]([m5C])p.[moe](A)p.[moe](T)p.[moe]([m5C])[sp].[moe](T)}$$$$ (last 3' nucleoside missing) | 3 |
| RNA1{[moe](T)[sp].[moe](T)p.[moe](G)p.[moe](A)p.[moe](G)[sp].d(A)[sp].d(T)[sp].d(A)[sp].d(T)[sp].d([m5C])[sp].d(T)[sp].d(T)[sp].d(G)[sp].[moe](T)p.[moe](G)p.[moe](A)[sp].[moe]([m5C])}$$$$ (last 3' nucleoside missing) | 3 |
| RNA1{[moe](T)[sp].[moe]([m5C])p.[moe](T)p.[moe](T)p.[moe](T)[sp].d(A)[sp].d(T)[sp].d(T)[sp].d(T)[sp].d(T)[sp].d(T)[sp].d([m5C])[sp].d([m5C])[sp].d(T)[sp].d([m5C])[sp].[moe](A)p.[moe](G)p.[moe]([m5C])[sp].[moe](G)}$$$$ (last 3' nucleoside missing) | 1 |
| RNA1{[moe](G)[sp].[moe](A)p.[moe](G)p.[moe](A)p.[moe](T)[sp].d(A)[sp].d(T)[sp].d([m5C])[sp].d(T)[sp].d(T)[sp].d(G)[sp].d(T)[sp].d(G)[sp].[moe](A)p.[moe]([m5C])p.[moe]([m5C])[sp].[moe](T)}$$$$ (last 3' nucleoside missing) | 4 |
| RNA1{[moe]([m5C])[sp].[moe](T)p.[moe](A)p.[moe](G)p.d(T)[sp].d([m5C])[sp].d(A)[sp].d(G)[sp].d([m5C])[sp].d([m5C])[sp].d(T)[sp].d(G)[sp].d(G)[sp].d(T)[sp].[moe](T)p.[moe](A)p.[moe](G)p.[moe]([m5C])[sp].[moe]([m5C])}$$$$ (last 3' nucleoside missing) | 4 |
| RNA1{[moe](G)[sp].[moe]([m5C])p.[moe](A)p.[moe]([m5C])p.[moe](A)p.[moe](G)p.d(T)[sp].d(T)[sp].d([m5C])[sp].d([m5C])[sp].d([m5C])[sp].d(A)[sp].d(G)[sp].d(A)[sp].d(T)[sp].d(A)[sp].[moe]([m5C])p.[moe](T)[sp].[moe]([m5C])}$$$$ (last 3' nucleoside missing) | 0 |
| RNA1{[moe](G)[sp].[moe](G)p.[moe](T)p.[moe](A)p.[moe](A)[sp].d(G)[sp].d([m5C])[sp].d(T)[sp].d(G)[sp].d([m5C])[sp].d(T)[sp].d(G)[sp].d(G)[sp].d(A)[sp].d(G)[sp].[moe](T)p.[moe](A)p.[moe](A)[sp].[moe](G)}$$$$ (last 3' nucleoside missing) | 7 |
| RNA1{[moe](T)[sp].[moe](G)p.[moe](A)p.[moe]([m5C])p.[moe](T)p.[moe](A)p.d(T)[sp].d([m5C])[sp].d(T)[sp].d(A)[sp].d(G)[sp].d(G)[sp].d(A)[sp].d(T)[sp].d(T)[sp].d(T)[sp].[moe](G)p.[moe](G)[sp].[moe]([m5C])}$$$$ (last 3' nucleoside missing) | 2 |
| RNA1{[moe]([m5C])[sp].[moe]([m5C])p.[moe](A)p.[moe](T)p.[moe](T)[sp].d(T)[sp].d(A)[sp].d(T)[sp].d([m5C])[sp].d(T)[sp].d(G)[sp].d(T)[sp].d(G)[sp].d([m5C])[sp].d(T)[sp].[moe](T)p.[moe](T)p.[moe](A)[sp].[moe](G)}$$$$ (last 3' nucleoside missing) | 6 |
| RNA1{[moe](G)[sp].[moe](G)p.[moe]([m5C])p.[moe](T)p.[moe]([m5C])[sp].d(T)[sp].d([m5C])[sp].d(T)[sp].d([m5C])[sp].d(A)[sp].d(T)[sp].d([m5C])[sp].d(T)[sp].d(G)[sp].d(T)[sp].[moe]([m5C])p.[moe](A)p.[moe](A)[sp].[moe](A)}$$$$ (last 3' nucleoside missing) | 4 |
| RNA1{[moe](A)[sp].[moe]([m5C])p.[moe](A)p.[moe](T)p.[moe](T)p.d([m5C])[sp].d(A)[sp].d([m5C])[sp].d(T)[sp].d(A)[sp].d(A)[sp].d(T)[sp].d(A)[sp].d(T)[sp].d(T)[sp].[moe](T)p.[moe](A)p.[moe](A)[sp].[moe]([m5C])}$$$$ (last 3' nucleoside missing) | 0 |
| RNA1{[moe](G)[sp].[moe](T)p.[moe](G)p.[moe](A)p.[moe](T)[sp].d(T)[sp].d(T)[sp].d(T)[sp].d([m5C])[sp].d([m5C])[sp].d([m5C])[sp].d([m5C])[sp].d(G)[sp].[moe](T)p.[moe]([m5C])p.[moe](T)[sp].[moe](T)}$$$$ (last 3' nucleoside missing) | 0 |
| RNA1{[moe]([m5C])[sp].[moe](A)p.[moe]([m5C])p.[moe](A)p.d(T)[sp].d(T)[sp].d([m5C])[sp].d(A)[sp].d([m5C])[sp].d(T)[sp].d(A)[sp].d(A)[sp].d(T)[sp].d(A)[sp].[moe](T)p.[moe](T)p.[moe](T)p.[moe](A)[sp].[moe](A)}$$$$ (last 3' nucleoside missing) | 0 |
| RNA1{[moe](G)[sp].[moe](A)p.[moe](G)p.[moe](A)p.[moe]([m5C])[sp].d(A)[sp].d(T)[sp].d(G)[sp].d([m5C])[sp].d(A)[sp].d(T)[sp].d(A)[sp].d(T)[sp].d([m5C])[sp].d(T)[sp].[moe](A)p.[moe](G)p.[moe](T)[sp].[moe](G)}$$$$ (last 3' nucleoside missing) | 6 |
| RNA1{[moe](T)[sp].[moe]([m5C])p.[moe](T)p.[moe](T)p.d(T)[sp].d(A)[sp].d(T)[sp].d(T)[sp].d(T)[sp].d(T)[sp].d(T)[sp].d([m5C])[sp].d([m5C])[sp].d(T)[sp].[moe]([m5C])p.[moe](A)p.[moe](G)p.[moe]([m5C])[sp].[moe](G)}$$$$ (last 3' nucleoside missing) | 1 |
| RNA1{[moe](T)[sp].[moe](G)p.[moe](G)p.[moe]([m5C])p.[moe](A)p.d(G)[sp].d(T)[sp].d(A)[sp].d(T)[sp].d(T)[sp].d(A)[sp].d([m5C])[sp].d([m5C])[sp].d(T)[sp].d([m5C])[sp].[moe](T)p.[moe](A)p.[moe]([m5C])[sp].[moe](T)}$$$$ (last 3' nucleoside missing) | 1 |
| RNA1{[moe](G)[sp].[moe]([m5C])p.[moe](A)p.[moe](G)p.[moe](T)p.[moe](A)p.d(T)[sp].d(T)[sp].d(A)[sp].d([m5C])[sp].d([m5C])[sp].d(T)[sp].d([m5C])[sp].d(T)[sp].d(A)[sp].d([m5C])[sp].[moe](T)p.[moe](A)[sp].[moe](G)}$$$$ (last 3' nucleoside missing) | 0 |
| RNA1{[moe](T)[sp].[moe]([m5C])p.[moe](A)p.[moe](G)p.[moe]([m5C])p.d([m5C])[sp].d(T)[sp].d(G)[sp].d(G)[sp].d(T)[sp].d(T)[sp].d(A)[sp].d(G)[sp].d([m5C])[sp].d([m5C])[sp].[moe](T)p.[moe](T)p.[moe](T)[sp].[moe]([m5C])}$$$$ (last 3' nucleoside missing) | 4 |
